Legend:
[1] = In vitro release of antibiotics from PLGA/PCL composite coatings on titanium K-wires (HPLC); assay type: physicochemical; details: for release kinetics after storage: stored coated pins, two-week in vitro release
Protocol: (§1) The release rate of the polymer composite film was measured by HPLC. Drug release studies were conducted using coated pins created with the same loading parameters as those used for later in vivo testing (10% (w/w) drug combinations) electrospun for 60 seconds at injection rates of 0.5 mL/h from each needle. Release rate of antibiotics from the composite polymer coating was characterized by placing coated pins in 200 μL pH 7.4 PBS buffer and incubating at 37° C. in an aluminum film-covered incubator to prevent possible light-induced drug degradation. Release media was changed at fixed time points over a period of two weeks and stored in a −20° C. freezer until analysis. Drug concentrations in release media for each day were determined via reverse-phase HPLC using a C-18 column in an Alliance HPLC system and Waters 2996 PDA detector. The mobile phase was a mixture of acetonitrile and water both mixed with 0.1% TFA acid, which was run at a gradient from (15%/85%) to (40%/60%) for a total runtime of 15 minutes per sample for the elution of Van/Rif and Lin/Rif drug loading groups. Elution of the Dap/Rif loading group was conducted using a mobile phase of (49%/51%) of acetonitrile and water both mixed with 0.1% TFA acid for a total run time of 11 minutes per sample. Concentrations of the drugs were quantified using wavelengths of 343 nm for Rif, 254 nm for Lin, 280 nm for Van and 223 nm for Dap using prepared standard curves for all three drugs. […] Quantification was performed through the derivatization of Gentamicin with ninhydrin at 95° C. for 15 minutes and detection with a Biotek Synergy2 plate reader.
(§2) Long-term efficacy of the antimicrobial activity was tested by storing electrospun pins at room temperature for 6 weeks, −20° C. for 6 weeks, and −80° C. for 8 months. Coated pins were protected from light during storage. These pins were then used in the same zone of inhibition assay as described hereinabove.
Drug release studies were conducted using coated pins created with the same loading parameters as detailed above. Release kinetics of antibiotics from the composite coating were characterized by placing coated pins in 200 μL of phosphate buffer saline (PBS, pH 7.4) at 37° C. Release media was changed daily over a period of two weeks and stored at −20° C. until analysis. Drug concentrations in release media were measured on days 1, 2, 3, 5, 7, 10 and 14 using a Waters Alliance 2690 HPLC system (Waters Corporation, Milford, Mass.) equipped with an Accucore RP-MS C18 column (100 mm×2.1 mm; Thermo Fisher Scientific) and a Waters 2996 PDA detector. The elution was carried out with a mobile phase of water and acetonitrile both mixed with 0.1% TFA at a flow rate of 1 mL/min at ambient temperature using a linear gradient elution program of 85% water to […] in 15 minutes. Concentrations of the drugs were quantified using wavelengths for Van (280 nm), Lin (254 nm), Dap (224 nm) and Rif (263 nm).

S. aureus = assay: In vitro zone of inhibition assay of coated K-wires; assay type: cell-based, Staphylococcus aureus; details: 6 weeks room temperature, 6 weeks −20° C., 8 months
Source text: A zone of inhibition assay was used as an additional assay to evaluate the in vitro release of antibiotic(s) from the composite coating. Tryptic soy agar bacterial plates were inoculated with S. aureus bacteria cells to yield a bacterial lawn after overnight culture. After bacterial inoculation and before culturing the plates, two identical titanium K-wires loaded with either 10 w/w % Lin, 10 w/w % Van, or 10 w/w % Dap alone, or in combination with Rif were placed in two separate areas on the plate. After culturing the plates at 37° C. for 24 hours, the antimicrobial activity of the eluded antibiotic(s) into the agar was measured as a zone of inhibition (diameter [mm]) of the bacterial growth around the K-wire.
as §2, with “hereinabove. These antimicrobial results were further confirmed with a two-week in vitro release study to determine release kinetics after storage.” for “hereinabove.”
Tryptic soy agar (TSA) bacterial plates were inoculated with S. aureus to yield a bacterial lawn after overnight culture. Before culturing the plates, two titanium K-wires each loaded with the same combination of antibiotics from each set were placed in two separate areas on the plate. After culturing at 37° C. for 24 hours, the zone of inhibition (ZOI) (diameter/mm) of bacterial growth were measured.

S. aureus strain Xen36 = assay: MIC of XEN36 for each antibiotic; assay type: cell-based, Staphylococcus aureus; details: S. aureus XEN36; for MIC: Staphylococcus aureus, read-out: MIC of XEN36
Protocol: S. aureus strain Xen36 (PerkinElmer, Waltham, Mass.) previously derived from the clinical bacteremia isolate ATCC 49525 (Wright) was used in all experiments. (Francis et al., 2000). […] (Francis et al., 2000). Xen36 was prepared for inoculation as previously described. (Niska et al., 2013; Pribaz et al. (2012)).

[2] = Release kinetics of antibiotics from nanofiber-hydrogel composite sheet (HPLC); assay type: physicochemical
Source text: A sheet device was designed with the goal of reinforcing the implant soft tissue pocket, as well as serving as a platform for the local delivery of antibiotics. The device was composed of a polycaprolactone (PCL) nanofiber sheet core embedded within a nanofiber-hydrogel composite scaffold. The nanofiber core was created via random-pattern electrospinning of PCL dissolved in an organic solvent. An antibiotic-containing version was created by adding 1% w/w of linezolid and rifampicin to the starting PCL solution. All materials containing rifampicin were protected from light exposure to minimize risk of degradation. Next a composite scaffold was prepared by interfacially bonding 500-nm PCL nanofibers suspended within a hyaluronic acid matrix. The nanofiber sheet was then embedded within the composite scaffold and shaped to form a 1-mm thick sheet device. Release kinetics of each antibiotic were assessed using high-performance liquid chromatography (HPLC).

[3] = In vitro release of Gentamicin from PLGA nanofibers / composite coating (ninhydrin); assay type: physicochemical
Protocol: The drug groups tested all included Rifampin (Rif), and the second drug was varied among linezolid (Lin), vancomycin (Van), and daptomycin (Dap). Each drug group combination of Rif and a secondary drug was tested with five pin groups as shown in Sets 1-3 (FIG. 1E). To load the antibiotics into the polymer nanofibers or film, Rif and Lin were dissolved in corresponding 10% w/w PLGA or PCL polymer solution prior to electrospinning. Van or Dap was first dissolved in dimethyl sulfoxide (DMSO) to form a 20% (w/w) solution before being added into their respective polymer solutions to form a suspension. This suspension can be electrospun in a relatively uniform fashion. Suspensions using water as a solvent were also produced using the model drug Gentamicin (Gent). Briefly, Gent was dissolved in DI water to form a 30% (w/w) solution before being added to a PLGA solution dissolved in HFIP. The suspension was stabilized through prolonged sonication and vortexing prior to electrospinning.
as §1, with “drugs. As an example, FIG. 3A and FIG. 3B show the in vitro release profiles of Lin and Rif from the composite coating on titanium K-wire implants.” for “drugs.”

Compound | release kinetics after storage [1] | antimicrobial activity (zone of inhibition) after storage versus freshly prepared coatings (S. aureus) | MIC (S. aureus strain Xen36) [µg/mL] | time Rif remains above the MIC, tuned by PCL molecular weight or PCL layer thickness ([1]; in vitro release from composite coating) [days] | complete release from the nanofiber-hydrogel composite sheet [2] [days] | release from the nanofiber-hydrogel composite sheet within the first 24 hours [2] [%] | Gentamicin release profile ([3]; 50:50 PLGA) | release of Gentamicin above the MIC, controlled by polymer choice ([3]; 50:50 versus 75:25 PLGA) [days] | Gentamicin release profile ([3]; 75:25 PLGA) | Day 1 release of Gentamicin ([3]; PLGA nanofibers alone) | Day 1 release of Gentamicin ([3]; PLGA nanofibers embedded in PCL film layer) | time Gentamicin concentration at MIC could be sustained ([3]; in vitro release from PLGA nanofibers) | MIC of XEN36 (S. aureus strain Xen36)
CCCCCCCCCC(=O)N[C@@H](Cc1c[nH]c2ccccc12)C(=O)N[C@H](CC(N)=O)C(=O)N[C@@H](CC(=O)O)C(=O)N[C@@H]1C(=O)NCC(=O)N[C@@H](CCCN)C(=O)N[C@@H](CC(=O)O)C(=O)N[C@H](C)C(=O)N[C@@H](CC(=O)O)C(=O)NCC(=O)N[C@H](CO)C(=O)N[C@@H]([C@H](C)CC(=O)O)C(=O)N[C@@H](CC(=O)c2ccccc2N)C(=O)O[C@@H]1C [Dap, daptomycin] | no difference in the release kinetics | no significant loss of antimicrobial activity | 0.25 |  |  |  |  |  |  |  |  |  | 
CO[C@H]1/C=C/O[C@@]2(C)Oc3c(C)c(O)c4c(O)c(c(/C=N/N5CCN(C)CC5)c(O)c4c3C2=O)NC(=O)/C(C)=C\C=C\[C@H](C)[C@H](O)[C@@H](C)[C@@H](O)[C@@H](C)[C@H](OC(C)=O)[C@@H]1C [Rif, Rifampin] | reduced after storage at room temperature for six weeks, but not when the pins were stored at −20 °C | no significant loss of antimicrobial activity | 0.5 | 2 to 5 | ≤ 14 | 70 |  |  |  |  |  |  | 
CC(=O)NC[C@H]1CN(c2ccc(N3CCOCC3)c(F)c2)C(=O)O1 [Lin, linezolid] | no difference in the release kinetics | no significant loss of antimicrobial activity | 2 |  | ≤ 3 | 70 |  |  |  |  |  |  | 
Gentamicin |  |  |  |  |  |  | sustained release | 2 to 14 | only a burst release | 80 % of total loading | less than 45 % of total loading | up to 14 days | roughly 10 μg/mL

Source: US20210322622A1, “COMPOSITIONS AND METHODS FOR PREPARATION OF COMPOSITE POLYMER FILMS ON NON-CONDUCTING SUBSTRATES, INCLUDING BANDAGES, AND THEIR USE FOR TREATING WOUNDS” (The Johns Hopkins University, priority 2018, published 2021)
